Assay results published in PMC6792350 (Environmental Health Perspectives, 2019).

Columns and labels:
[1] = Noncompartmental toxicokinetic analysis of plasma after IV dosing in piglets; conditions: for time after which plasma concentrations were below the LOQ: after IV BPA and BPS administration; for time of maximal plasma glucuronide concentration: after IV BPA and BPS dosing; for Cmax/dose / AUC0-tlast/dose / Tmax: plasma, mean±SD; for Cmax/dose: IV BPA 21.9 or 20 μmol/kg (n=15) or IV BPS 20 μmol/kg (n=16), glucuronides after parent dosing; for AUC0-tlast/dose: IV BPA or BPS dosing; for Tmax: glucuronide after IV BPA or BPS dosing
Experimental: Table 1 summarizes the protocol of the experiments and the plasma and urine datasets further considered for TK analyses. A first experiment (Exp. 1) was performed in 8 male piglets age 42 d ( 20.8±1.6kg BW) to investigate oral BPA TK. […] BPA data obtained after IV BPA administrations had already been used to evaluate human BPA clearance using an allometric approach ([Collet et al. 2015]).
For the IV administrations, BPA powder was dissolved in ethanol–propylene glycol (1:49, vol:vol) at 50mg/mL (Exp.1 and 2) and in ethanol–saline (1:2, vol:vol) at 23mg/mL (Exp. 5).
During the first 24 h of sampling, the piglets were housed individually in stainless steel cages.
(§1) The plasma analytes concentration–time data from individual piglets were used to derive the maximum concentration (Cmax), and the time to maximum concentration (Tmax). The area under the plasma concentration–time curves from dosing time to the time of the last measurable concentration ( AUC0–tlast ) were calculated using the linear trapezoidal rule (Equation 1). (1) AUC0–tlast=∑0tlast(Ci−1+Ci/2)×(ti−ti−1) where Ci is the concentration obtained at the time i ( ti ).
(§2) The area under the plasma concentration time curve from t=0 to infinity ( AUC0–inf ) was obtained using Equation 2. (2) AUC0–inf=AUC0–tlast+AUCtlast–inf where AUCtlast–inf is the area extrapolated from the last observation to infinity, calculated according to Equation 3: (3) AUCtlast–inf=Clast/λz where Clast is the last observed quantifiable plasma concentration, and λz is the slope of the terminal phase, as estimated by linear regression using the best fit option of Phoenix®.

[2] = Cumulative urinary excretion after IV and oral dosing in piglets; conditions: for fraction of parent dose recovered in urine as glucuronide, mean±SD / fraction of parent dose recovered in urine as glucuronide, range: by 24 h
Experimental: Blood samples were collected in heparinized polypropylene tubes, immediately chilled in ice and centrifuged for 10 min at 3,000×g at 4°C, and the supernatant plasma was stored in polypropylene tubes at −20°C until assay. Total urine was filtered through a nylon mesh ( 250μm ) and collected in glass containers and chilled in ice. The volume of each urine sample and the sampling time were recorded. A urine sample was immediately chilled in ice and centrifuged for 10 min at 3,000×g at 4°C and stored at −20°C until assayed.
Analytes were quantified by Acquity UPLC-MS/MS (Waters Corporation).
All TK analyses were performed using the Phoenix® NLME (version 8.0; Pharsight Corporation). The plasma mass concentrations were converted into molar concentrations before analysis.

[3] = Population semiphysiologically based 9-compartment TK model (NLME) of plasma and urine data in piglets; conditions: for tvK25, rate constant liver to plasma for the glucuronide, Mean / tvK50, glucuronide elimination rate constant from plasma to urine, Mean / tvK56, distribution rate constant, Mean / tvK65, distribution rate constant, Mean / tvK105, rate constant of glucuronide formed by enterocytes absorbed into the systemic circulation, Mean / tvV, volume of the central compartment, Mean: bootstrap mean; for tvK25, rate constant liver to plasma for the glucuronide, Median / tvK50, glucuronide elimination rate constant from plasma to urine, Median / tvK56, distribution rate constant, Median / tvK65, distribution rate constant, Median / tvK105, rate constant of glucuronide formed by enterocytes absorbed into the systemic circulation, Median / tvV, volume of the central compartment, Median: bootstrap median; for mean volume of the central compartment: pig, in vivo; for tvV, volume of the central compartment, Mean / tvV, volume of the central compartment, Median: population primary parameter
Experimental: The NLME model was therefore developed by combining the plasma and urinary data sets from the five TK experiments carried out in piglets, except for the urinary BPA concentration obtained after oral administration of BPA.
Different compartmental models and submodels were tested and compared using the likelihood ratio test (LRT). The primary parameters of the model, namely the volumes of distribution ( VBPA , VBPAG , VBPS , VBPSG ) and the first-order rate constants ( Kij ) and their associated precisions [standard error (SE)] were estimated by minimizing an objective function value (OFV) expressed as minus twice the log of the likelihood estimation ( −2LL ).
The between-subject variability (BSV) of the parameters was evaluated using the exponential model θparameter_i=θtv_parameter×exp(ηi) , where θparameter_i is the parameter estimated for the i^th individual, θtv_parameter is the typical population value of the parameter, and ηi is the deviation associated with the i^th individual from the corresponding value of the parameter at the population level. The distribution of ηi was assumed to be normal with a mean of 0 and a variance ω² . The BSV was reported as a coefficient of variation (CV) in the original scale CV(%)=100× exp (ω^2)−1 .
The residual variance was modeled using a combined additive and proportional error model Cobsij=Cpredij(1+ε1ij)+ε2ij where Cobsij and Cpredij are respectively the j^th observed and predicted concentrations for the i^th individual and ε1ij and ε2ij the multiplicative and additive residual errors.
The bootstrap tool (20 replicates) was used to evaluate the mean, median, SE, and coefficient of variation of the parameter estimates. The predictive ability of the model was checked graphically by plotting Visual Predictive Check plots to compare the observed data with the selected quantiles (here 20th, 50th and 80th percentiles) of data simulated using the model and obtained from 200–1,000 replicates from each animal based on the structure of the original data (i.e., dosing, timing and number of samples).
For the LRT test, the critical value of the χ^2 distribution considered for a given nominal risk and a given number of degrees of freedom was obtained using the Excel function CHISQ.INV.RT().
Figure 1. Schematic representation of the compartmental model. […] The link between the two central compartments was modeled with a compartment (CP2) that should be viewed as the liver. […] The fraction of absorbed BPA that is not hepatically transformed reaches the CP3 via K23 . The exchanges between CP2 and CP3 are bilateral, K32 being the rate constant between CP3 and CP2 and K23 the rate constant between CP2 and CP3. […] It was assumed that no phase-two metabolite other than BPAG (BPSG) was formed.
(12) Bioavailability=K12/K12+K110+K10×(1−K25/K25+K23) with K10 , K12 , K110 , K23; K25 as defined above.

[4] = Noncompartmental toxicokinetic analysis of plasma after oral (gavage) dosing in piglets; conditions: plasma, mean±SD; for Cmax/dose: oral BPA 438 or 200 μmol/kg (n=12) or oral BPS 40 or 200 μmol/kg (n=10); for AUClast/dose / Tmax: oral BPA or BPS dosing
Experimental: Table 1 summarizes the protocol of the experiments and the plasma and urine datasets further considered for TK analyses.
For administrations by gavage, BPA powder was dissolved in ethanol–corn oil (1:9, vol:vol) at 100mg/mL (Exp. 1).
as §1, §2

[5] = IV BPA (n=7) or IV BPS (n=16) dosing
[6] = oral BPA (n=4) or oral BPS (n=10) dosing

SMILES	time after which plasma concentrations were below the LOQ [1] [h]	time of maximal plasma glucuronide concentration [1]	Cmax/dose [1] [μmol/L per μmol/kg BW]	AUC0-tlast/dose [1] [μmol×h/L per μmol/kg]	Tmax [1] [min]	fraction of parent dose recovered in urine as glucuronide, mean±SD [2, 5] [%]	fraction of parent dose recovered in urine as glucuronide, range ([2]; IV BPA or BPS dosing)	fraction of parent dose recovered in urine as glucuronide, mean±SD [2, 6] [%]	fraction of parent dose recovered in urine as glucuronide, range ([2]; oral BPA or BPS dosing)	tvK25, rate constant liver to plasma for the glucuronide, Mean [3] [h⁻¹]	tvK50, glucuronide elimination rate constant from plasma to urine, Mean [3] [h⁻¹]	tvK56, distribution rate constant, Mean [3] [h⁻¹]	tvK65, distribution rate constant, Mean [3] [h⁻¹]	tvK105, rate constant of glucuronide formed by enterocytes absorbed into the systemic circulation, Mean [3] [h⁻¹]	tvK25, rate constant liver to plasma for the glucuronide, Median [3] [h⁻¹]	tvK50, glucuronide elimination rate constant from plasma to urine, Median [3] [h⁻¹]	tvK56, distribution rate constant, Median [3] [h⁻¹]	tvK65, distribution rate constant, Median [3] [h⁻¹]	tvK105, rate constant of glucuronide formed by enterocytes absorbed into the systemic circulation, Median [3] [h⁻¹]	mean volume of the central compartment [3] [L/kg]	also measured
CC(C)(c1ccc(O)cc1)c1ccc(O[C@@H]2O[C@H](C(=O)O)[C@@H](O)[C@H](O)[C@H]2O)cc1 [BPAG, Bisphenol A glucuronide]	12 to 24	about 20 min	1.80±0.85	2.04±0.58	21 ± 20.4	97.0±27.6	63.1–135.7%	62.2±15.8	49.5–80.2%	137.08	2.750	1.45	0.015	0.207	91.87	2.547	1.45	0.015	0.217	0.11	tvV, volume of the central compartment, Mean [3]: 0.107 L/kg; tvV, volume of the central compartment, Median [3]: 0.112 L/kg; Cmax/dose [4]: 0.58±0.34 μmol/L per μmol/kg BW; AUClast/dose [4]: 1.75±0.73 μmol×h/L per μmol/kg BW; Tmax [4]: 74.4 ± 64.2 min
O=C([O-])[C@H]1O[C@@H](Oc2ccc(S(=O)(=O)c3ccc(O)cc3)cc2)[C@H](O)[C@@H](O)[C@@H]1O.[Na+] [BPSG, Bis(4-hydroxyphenyl) Sulfone O-β-D-Glucuronide-Sodium Salt]	8 to 12	about 20 min	2.55±0.58	2.59±0.77	17.4 ± 11.4	76.8±20.1	36.3–107.9%	86.5±23.9	65.5–126.8%	66.6	1.818	0.730	0.006	0.534	62.147	1.832	0.655	0.006	0.523	0.14	fraction of the IV BPSG dose recovered in urine, range ([2]; 24 h post dosing, IV BPSG): 40.1–69.8%; mean fraction of the IV BPSG dose recovered in urine ([2]; 24 h post dosing, IV BPSG): 59.0±9.96%; tvV, volume of the central compartment, Mean [3]: 0.135 L/kg; tvV, volume of the central compartment, Median [3]: 0.137 L/kg; Cmax/dose [4]: 2.94±4.78 μmol/L per μmol/kg BW; AUClast/dose [4]: 2.87±0.99 μmol×h/L per μmol/kg BW; Tmax [4]: 43.8 ± 18 min
